Measurements as given in the CheMixHub viscosity set.
“And” between values parts separate entries of the source, which are not always exact repeats. Identical values can stand only once. ± gives the uncertainty stated by the source.

Assay: xn = mol fraction of the nth substance listed

With `CS(C)=O` + O the viscosity (293.15 K, 101 kPa, x1 = 0.01) was 1.11 ± 0.03 mPa·s, the viscosity (293.15 K, 101 kPa, x1 = 0.025) was 1.23 ± 0.03 mPa·s and the viscosity (293.15 K, 101 kPa, x1 = 0.039) was 1.38 ± 0.04 mPa·s. For the same molecule, the viscosity (293.15 K, 101 kPa, x1 = 0.05) was 1.502 ± 0.015 mPa·s, the viscosity (293.15 K, 101 kPa, x1 = 0.055) was 1.55 ± 0.04 mPa·s and the viscosity (293.15 K, 101 kPa, x1 = 0.071) was 1.74 ± 0.04 mPa·s. It also gave a viscosity (293.15 K, 101 kPa, x1 = 0.09) of 1.97 ± 0.05 mPa·s, a viscosity (293.15 K, 101 kPa, x1 = 0.11) of 2.23 ± 0.06 mPa·s and a viscosity (293.15 K, 101 kPa, x1 = 0.13) of 2.54 ± 0.06 mPa·s. The viscosity (293.15 K, 101 kPa, x1 = 0.15) was 2.815 ± 0.028 mPa·s, the viscosity (293.15 K, 101 kPa, x1 = 0.16) was 2.9 ± 0.07 mPa·s and the viscosity (293.15 K, 101 kPa, x1 = 0.19) was 3.28 ± 0.08 mPa·s. The viscosity (293.15 K, 101 kPa, x1 = 0.22) was 3.68 ± 0.09 mPa·s, the viscosity (293.15 K, 101 kPa, x1 = 0.25) was 4.042 ± 0.043 mPa·s and the viscosity (293.15 K, 101 kPa, x1 = 0.26) was 4.02 ± 0.1 mPa·s. The viscosity (293.15 K, 101 kPa, x1 = 0.3) was 4.26 ± 0.11 mPa·s, the viscosity (293.15 K, 101 kPa, x1 = 0.35) was 4.375 ± 0.053 mPa·s and 4.4 ± 0.11 mPa·s and the viscosity (293.15 K, 101 kPa, x1 = 0.41) was 4.29 ± 0.11 mPa·s. For the same molecule, the viscosity (293.15 K, 101 kPa, x1 = 0.48) was 3.913 ± 0.06 mPa·s and 3.97 ± 0.1 mPa·s, the viscosity (293.15 K, 101 kPa, x1 = 0.57) was 3.54 ± 0.09 mPa·s and the viscosity (293.15 K, 101 kPa, x1 = 0.67) was 3.08 ± 0.08 mPa·s. The viscosity (293.15 K, 101 kPa, x1 = 0.73) was 2.9 ± 0.06 mPa·s, the viscosity (293.15 K, 101 kPa, x1 = 0.81) was 2.62 ± 0.07 mPa·s and the viscosity (293.15 K, 101.3 kPa, x1 = 0.012) was 1.112 ± 0.029 mPa·s. The viscosity (293.15 K, 101.3 kPa, x2 = 0.1906) was 2.569 ± 0.067 mPa·s, the viscosity (293.15 K, 101.3 kPa, x2 = 0.3252) was 2.966 ± 0.078 mPa·s and the viscosity (293.15 K, 101.3 kPa, x2 = 0.5203) was 3.891 ± 0.1 mPa·s. The viscosity (293.15 K, 101.3 kPa, x2 = 0.6501) was 4.352 ± 0.11 mPa·s, the viscosity (293.15 K, 101.3 kPa, x2 = 0.743) was 3.998 ± 0.1 mPa·s and the viscosity (293.15 K, 101.3 kPa, x2 = 0.8183) was 3.231 ± 0.084 mPa·s. For the same molecule, the viscosity (293.15 K, 101.3 kPa, x2 = 0.8668) was 2.57 ± 0.067 mPa·s, the viscosity (293.15 K, 101.3 kPa, x2 = 0.9101) was 2.008 ± 0.052 mPa·s and the viscosity (293.15 K, 101.3 kPa, x2 = 0.9455) was 1.575 ± 0.041 mPa·s. For the same molecule, the viscosity (293.15 K, 101.3 kPa, x2 = 0.9751) was 1.247 ± 0.033 mPa·s, the viscosity (293.15 K, 101.33 kPa, x1 = 0.00588) was 1.053 ± 0.052 mPa·s and the viscosity (293.15 K, 101.33 kPa, x1 = 0.012) was 1.112 ± 0.054 mPa·s. For the same molecule, the viscosity (293.15 K, 101.33 kPa, x1 = 0.02498) was 1.264 ± 0.061 mPa·s, the viscosity (293.15 K, 101.33 kPa, x1 = 0.03901) was 1.402 ± 0.067 mPa·s and the viscosity (293.15 K, 101.33 kPa, x1 = 0.04864) was 1.515 ± 0.072 mPa·s. It also gave a viscosity (293.15 K, 101.33 kPa, x1 = 0.0545) of 1.559 ± 0.074 mPa·s, a viscosity (293.15 K, 101.33 kPa, x1 = 0.08993) of 2.009 ± 0.093 mPa·s and a viscosity (293.15 K, 101.33 kPa, x1 = 0.1332) of 2.589 ± 0.12 mPa·s. The viscosity (293.15 K, 101.33 kPa, x1 = 0.1469) was 2.743 ± 0.12 mPa·s, the viscosity (293.15 K, 101.33 kPa, x1 = 0.1874) was 3.319 ± 0.15 mPa·s and the viscosity (293.15 K, 101.33 kPa, x1 = 0.2998) was 4.296 ± 0.19 mPa·s. For the same molecule, the viscosity (293.15 K, 101.33 kPa, x1 = 0.3498) was 4.385 ± 0.19 mPa·s, the viscosity (293.15 K, 101.33 kPa, x1 = 0.4498) was 4.091 ± 0.18 mPa·s and the viscosity (293.15 K, 101.33 kPa, x1 = 0.5665) was 3.498 ± 0.16 mPa·s. The viscosity (293.15 K, 101.33 kPa, x1 = 0.651) was 3.211 ± 0.14 mPa·s, the viscosity (293.15 K, 101.33 kPa, x1 = 0.7539) was 2.743 ± 0.12 mPa·s and the viscosity (293.15 K, 101.33 kPa, x1 = 0.847) was 2.514 ± 0.11 mPa·s. It also gave a viscosity (298.15 K, 101 kPa, x1 = 0.01869) of 1.01 ± 0.3 mPa·s, a viscosity (298.15 K, 101 kPa, x1 = 0.0406) of 1.19 ± 0.36 mPa·s and a viscosity (298.15 K, 101 kPa, x1 = 0.05) of 1.318 ± 0.012 mPa·s. For the same molecule, the viscosity (298.15 K, 101 kPa, x1 = 0.06619) was 1.44 ± 0.43 mPa·s, the viscosity (298.15 K, 101 kPa, x1 = 0.15) was 2.438 ± 0.025 mPa·s and the viscosity (298.15 K, 101 kPa, x1 = 0.2) was 3.156 ± 0.034 mPa·s. For the same molecule, the viscosity (298.15 K, 101 kPa, x1 = 0.25) was 3.4 ± 0.04 mPa·s, the viscosity (298.15 K, 101 kPa, x1 = 0.35) was 3.763 ± 0.05 mPa·s and the viscosity (298.15 K, 101 kPa, x1 = 0.4) was 3.799 ± 0.038 mPa·s. For the same molecule, the viscosity (298.15 K, 101 kPa, x1 = 0.48) was 3.395 ± 0.053 mPa·s and 3.446 ± 0.089 mPa·s, the viscosity (298.15 K, 101 kPa, x1 = 0.6) was 3.008 ± 0.036 mPa·s and the viscosity (298.15 K, 101 kPa, x1 = 0.73) was 2.507 ± 0.052 mPa·s. It also gave a viscosity (298.15 K, 101 kPa, x1 = 0.8) of 2.375 ± 0.043 mPa·s, a viscosity (298.15 K, 101 kPa, x2 = 0.047) of 2.054 ± 0.02 mPa·s and a viscosity (298.15 K, 101 kPa, x2 = 0.089) of 2.118 ± 0.021 mPa·s. It also gave a viscosity (298.15 K, 101 kPa, x2 = 0.186) of 2.298 ± 0.026 mPa·s, a viscosity (298.15 K, 101 kPa, x2 = 0.2) of 2.3 ± 0.1 mPa·s and a viscosity (298.15 K, 101 kPa, x2 = 0.3) of 2.7 ± 0.1 mPa·s. It also gave a viscosity (298.15 K, 101 kPa, x2 = 0.335) of 2.708 ± 0.037 mPa·s, a viscosity (298.15 K, 101 kPa, x2 = 0.522) of 3.449 ± 0.059 mPa·s and a viscosity (298.15 K, 101 kPa, x2 = 0.59) of 3.676 ± 0.067 mPa·s. It also gave a viscosity (298.15 K, 101 kPa, x2 = 0.651) of 3.764 ± 0.073 mPa·s, a viscosity (298.15 K, 101 kPa, x2 = 0.702) of 3.674 ± 0.075 mPa·s and a viscosity (298.15 K, 101 kPa, x2 = 0.743) of 3.467 ± 0.073 mPa·s. The viscosity (298.15 K, 101 kPa, x2 = 0.812) was 2.854 ± 0.064 mPa·s, the viscosity (298.15 K, 101 kPa, x2 = 0.867) was 2.232 ± 0.053 mPa·s and the viscosity (298.15 K, 101 kPa, x2 = 0.91) was 1.748 ± 0.043 mPa·s. The viscosity (298.15 K, 101 kPa, x2 = 0.945) was 1.382 ± 0.035 mPa·s, the viscosity (298.15 K, 101 kPa, x2 = 0.975) was 1.11 ± 0.029 mPa·s and the viscosity (298.15 K, 101.3 kPa, x1 = 0.012) was 0.986 ± 0.026 mPa·s. The viscosity (298.15 K, 101.3 kPa, x2 = 0.1906) was 2.299 ± 0.06 mPa·s, the viscosity (298.15 K, 101.3 kPa, x2 = 0.3252) was 2.63 ± 0.069 mPa·s and the viscosity (298.15 K, 101.3 kPa, x2 = 0.5203) was 3.38 ± 0.088 mPa·s. It also gave a viscosity (298.15 K, 101.3 kPa, x2 = 0.6501) of 3.727 ± 0.097 mPa·s, a viscosity (298.15 K, 101.3 kPa, x2 = 0.743) of 3.414 ± 0.089 mPa·s and a viscosity (298.15 K, 101.3 kPa, x2 = 0.8183) of 2.773 ± 0.072 mPa·s. The viscosity (298.15 K, 101.3 kPa, x2 = 0.9101) was 1.747 ± 0.045 mPa·s, the viscosity (298.15 K, 101.3 kPa, x2 = 0.9455) was 1.383 ± 0.036 mPa·s and the viscosity (298.15 K, 101.3 kPa, x2 = 0.9751) was 1.101 ± 0.029 mPa·s. For the same molecule, the viscosity (298.15 K, 101.33 kPa, x2 = 0.2097) was 2.291 ± 0.11 mPa·s, the viscosity (298.15 K, 101.33 kPa, x2 = 0.3132) was 2.568 ± 0.12 mPa·s and the viscosity (298.15 K, 101.33 kPa, x2 = 0.409) was 2.909 ± 0.13 mPa·s. The viscosity (298.15 K, 101.33 kPa, x2 = 0.503) was 3.197 ± 0.14 mPa·s, the viscosity (298.15 K, 101.33 kPa, x2 = 0.7032) was 3.569 ± 0.16 mPa·s and the viscosity (298.15 K, 101.33 kPa, x2 = 0.8053) was 2.858 ± 0.13 mPa·s. It also gave a viscosity (298.15 K, 101.33 kPa, x2 = 0.9021) of 1.787 ± 0.083 mPa·s.
